# “Also recorded” adds a separate entry of the source.
# How the values were obtained:
# [1] = test system: S37 murine sarcoma cell line; assay: Dark cytotoxicity, MTT assay; format: cell-based
# Protocol: (§2) To estimate cytotoxicity, cells were incubated with the substances for 72 h under dark conditions in a CO2 incubator.
# (§3) Cell survival was estimated using the colorimetric MTT test (24 and 72 h after exposure), which is based on the ability of dehydrogenases in living cells to convert yellow water-soluble 3-(4-5-dimethyl-tetrazolyl-2)-2,5-diphenyltetrazolium bromide to blue crystals of formazan, whose amount is measured spectrophotometrically.
# [2] = Dark cytotoxicity, MTT assay; format: cell-based, murine; details: mouse, S37 murine sarcoma cells; S37 cells; 72 h incubation of compounds with cells, no irradiation, MTT
# Protocol: as §2, §3
# [3] = UV-Vis absorption and fluorescence spectra; format: physicochemical; details: dichloromethane; for fluorescence maximum: excitation at 550 nm
# Protocol: Because the pigments noted above are photoactive compounds, it was important to determine the effect of the sulfur atom on their spectral characteristics.
# Absorption and fluorescence spectra were recorded on Shimadzu UV1800 UV/VIS (Shimadzu, Duisburg, Germany) and Shimadzu RF-5301 (Shimadzu, Duisburg, Germany) spectrophotometers in quartz cells (0.4 × 1.0 cm) with an optical path length of 1 cm (spectral slit width 1 nm), using dichloromethane, acetone, and water as the solvents. Absorption spectra were recorded in the range of 350–750 nm. Fluorescence spectra were recorded in the range of 600–800 nm (excitation wavelength 550 nm), using dichloromethane, acetone, and water as the solvents. The fluorescence quantum yield was determined by the relative method. A solution of purpurin-18 in toluene was used as the standard. Both ^1H and ^13C NMR spectra were recorded on a Bruker DPX 300 spectrometer (Bruker, Alzenau, Germany). NMR samples were prepared in d6-acetone and CDCl3. Matrix-assisted laser desorption/ionization (MALDI) mass spectra were recorded on a Bruker Ultraflex TOF/TOF spectrometer (Bruker, Alzenau, Germany), with 2,5-dihydroxybenzoic acid as the matrix. Elemental analysis was performed on a Vario Micro Cube analyzer (Elementar, Berlin, Germany).
# [4] = Chemical stability in cell culture medium at different pH (Qy band intensity); format: physicochemical
# Protocol: (§1) The chemical stability of compounds 4 and 7 was also studied in the lysate of S37 sarcoma cells (pH = 7.8), as well as in the cell culture medium at different pH values. The stability was assessed by the change in the intensity of the Qy bands as described above.
# [5] = Chemical stability in lysate of S37 sarcoma cells (Qy band intensity); format: physicochemical; details: Cell lysate S37 (pH = 7.8)
# Protocol: as §1
# [6] = test system: S37 murine sarcoma cell line; assay: Photoinduced (combined) cytotoxicity, MTT assay after irradiation; format: cell-based; details: S37 cells; for IC50: 4 h PS incubation
# Protocol: To estimate the combined effect (photoinduced and chemocytotoxic) of compound (4) and platinum complex (7), a two-step experiment was designed: incubation of cells with PS for 4 h and irradiation and subsequent incubation for 48 or 72 h followed by estimation of cell survival by the MTT assay.
# The S37 murine sarcoma cell line (collection of the N.N. Blokhin Research Institute of Oncology) was used to estimate photoinduced activity and cytotoxicity.
# Cells were cultured in DMEM medium (PanEco, Russia) with addition of 2 mM L-glutamine (PanEco, Moscow, Russia) and 10% fetal calf blood serum (FCS) (Corning, New York, NY, USA) in 25 cm^2 culture vials (Corning, USA) at 37 °C in a humid atmosphere containing 5% carbon dioxide. Upon passivation, the Versene solution (PanEco, Russia) was used to remove the cells from the substrate. For in vitro studies, cells of the 3rd and 4th passages were used with an optimal seeding concentration of 6 × 10^4 cells/mL.
# The concentrations of the solutions obtained were 0.6 mg/mL for compound (4) and 0.1 mg/mL for compound (7). All the volumes obtained were filtered through a Millipore membrane filter with a pore size of 0.22 μm. Next, the samples were diluted in 24-well plates (Corning, USA) on the cell-culturing medium. The final concentration of the substances ranged from 32 ng/mL to 20 μg/mL.
# To perform the experiments, S37 tumor cells were seeded into 96-well plates in the amount of 6 × 10^3 cells per well in a 100 μL volume. Exposure was performed in the exponential phase of cell growth 24 h after seeding. Solutions of compounds in the complete culture medium were added to the wells at final concentrations of 32 ng/mL to 20 μg/mL, in triplicate. The time of cell incubation with compounds before irradiation was 4 h. The culture medium was used as the blank. Light exposure was performed with a halogen lamp through a KS-10 broadband filter (λ > 620 nm). The light dose was 10 J/cm^2. After light exposure, the plates with cells were placed in a CO2 incubator for 24, 48, or 72 h.
# Cell survival was estimated using the colorimetric MTT test (24 and 72 h after exposure), which is based on the ability of dehydrogenases in living cells to convert yellow water-soluble 3-(4-5-dimethyl-[…]-2)-2,5-diphenyltetrazolium bromide to blue crystals of formazan, whose amount is measured spectrophotometrically.
# Before the test, cells were washed from cytotoxic agents. Then, 0.5% solution of 3-(4,5-dimethylthiazolyl-2)-2,5-diphenyltetrazolium bromide was added to the wells and the system was incubated for 3 h under standard conditions. After incubation, the medium with the MTT-reagent was removed and formazan crystals were dissolved for 10 min with dimethyl sulfoxide. Optical density was measured on a Multiscan FC multichannel plate photometer (Thermo scientific) at 550 nm.
# The growth inhibition (GI) of cells in a culture was calculated using the following formula:GI(%) = [ODk − ODo/ODk)] × 100%, where ODo is the optical density of formazan in the test wells and ODk is the optical density of formazan in the control wells.
# Quantitative parameters were calculated using the results of three independent tests.
# [7] = Chemical stability in 4% aqueous micellar solution of Kolliphor ELP (absorption band intensity vs time); format: physicochemical
# Source text: The stability of pyropheophorbide a 13^1-thioketone (6) in 4% aqueous micellar solution of Kolliphor ELP over time was studied at a neutral pH by monitoring the variation in the Q2 band intensity in the absorption spectra of the sample.
# At the next step, we studied the chemical stability of complex 7 obtained in Kolliphor ELP aqueous micellar solutions vs. time at various pH values based on the variation in the intensity of the Qy band in the EAS of the samples (Figure 4).
# A solution of compounds (4) or (7) in dichloromethane (1–2 mL) was added dropwise with continuous argon bubbling to a freshly prepared 4% aqueous solution of Kolliphor ® ELP (5 mL) heated to 45 °C. Bubbling was continued until strong foaming started. A clear dark-red solution with a concentration of 0.25 mg/mL was obtained, which was then successively filtered through a 0.45 µm PTFE filter and a 0.22 µm PTFE filter. The concentrations of the resulting micellar solutions were monitored spectrophotometrically.
compound,measurement,setting,value
"C=Cc1c(C)c2cc3nc(c4c5[nH]c(cc6nc(cc1[nH]2)C(C)=C6CC)c(C)c5C(=O)C4)[C@@H](CCC(=O)OC)[C@@H]3C [Compound 4, pyropheophorbide a methyl ester, reference compound]",cytotoxic effect without light irradiation (in words),"[1]; S37 sarcoma cells, 72 h incubation, dark",no cytotoxic effect on cells; also recorded: does not have a pronounced cytotoxicity
same,IC50 at 72 h,[2],> 36400 nM
same,fluorescence maximum,[3],684 nm
same,"Content, %","[4]; pH 4, 0 min",100%
same,Intensity at 666 nm,"[4]; pH 4, 0 min",0.9538
same,"Content, %","[4]; pH 4, 4 h",70%
same,Intensity at 666 nm,"[4]; pH 4, 4 h",0.6677
same,"Content, %","[4]; pH 4, 24 h",60%
same,Intensity at 666 nm,"[4]; pH 4, 24 h",0.5723
same,"Content, %","[4]; pH 4, 72 h",58%
same,Intensity at 666 nm,"[4]; pH 4, 72 h",0.5532
same,"Content, %","[4]; pH 7, 0 min",100%
same,Intensity at 666 nm,"[4]; pH 7, 0 min",0.9538
same,"Content, %","[4]; pH 7, 4 h",93%
same,Intensity at 666 nm,"[4]; pH 7, 4 h",0.887
same,"Content, %","[4]; pH 7, 24 h",87%
same,Intensity at 666 nm,"[4]; pH 7, 24 h",0.8298
same,"Content, %","[4]; pH 7, 72 h",79%
same,Intensity at 666 nm,"[4]; pH 7, 72 h",0.7535
same,"Content, %","[4]; pH 9, 0 min",100%
same,Intensity at 666 nm,"[4]; pH 9, 0 min",0.9538
same,"Content, %","[4]; pH 9, 4 h",85%
same,Intensity at 666 nm,"[4]; pH 9, 4 h",0.8107
same,"Content, %","[4]; pH 9, 24 h",78%
same,Intensity at 666 nm,"[4]; pH 9, 24 h",0.744
same,Intensity at 666 nm,"[4]; pH 9, 72 h",0.7058
same,"Content, %",[5]; 0 min,100%
same,Intensity at 666 nm,[5]; 0 min,0.9538
same,"Content, %",[5]; 4 h,91%
same,Intensity at 666 nm,[5]; 4 h,0.8679
same,"Content, %",[5]; 24 h,82%
same,Intensity at 666 nm,[5]; 24 h,0.7821
same,"Content, %",[5]; 72 h,76%
same,Intensity at 666 nm,[5]; 72 h,0.7249
same,IC50,"[6]; Mus musculus, S37, light or radiation study, irradiation at 10 J/cm^2, MTT after 24 h, read-out: IC50, Photoinduced cytotoxicity",4198 ± 13 nM
same,IC50,"[6]; Mus musculus, S37, light or radiation study, irradiation at 10 J/cm^2, MTT after 48 h, read-out: IC50, Combined cytotoxicity",4076 ± 11 nM
same,IC50,"[6]; Mus musculus, S37, light or radiation study, irradiation at 10 J/cm^2, MTT after 72 h, read-out: IC50, Combined cytotoxicity",4023 ± 13 nM
same,"photoinduced activity, times lower than that of the platinum complex",[6]; versus platinum complex 7,8.8 times
"C=Cc1c(C)c2cc3nc(c4c5[nH]c(cc6nc(cc1[nH]2)C(C)=C6CC)c(C)c5C(=[S+][Pt-2]([NH3+])([NH3+])[Cl])C4)[C@@H](CCC(=O)OC)[C@@H]3C.O=[N+]([O-])[O-] (some centres unmarked) [Compound 7, Platinum Complex of Pyropheophorbide a 13^1-Thioketone]",IC50,"[1]; S37 cells, 72 h incubation of compounds with cells, no irradiation, MTT",271 ± 7 nM
same,chemical stability (Qy band),"[7]; Kolliphor ELP micellar solution, acid, pH = 4",hypsochromic shift in the Qy band to the 666 nm region
same,chemical stability (Qy band intensity),"[7]; Kolliphor ELP micellar solution, alkaline, pH = 9",a precipitate formed and the intensity of the Qy absorption band decreased
same,chemical stability (Qy band intensity),"[7]; Kolliphor ELP micellar solution, pH = 7",remained stable for 24 h
same,"Content, %","[4]; pH 4, 0 min",100%
same,Intensity at 675 nm,"[4]; pH 4, 0 min",0.913
same,"Content, %","[4]; pH 4, 4 h",25%
same,Intensity at 675 nm,"[4]; pH 4, 4 h",0.2282
same,"Content, %","[4]; pH 4, 24 h",17%
same,Intensity at 675 nm,"[4]; pH 4, 24 h",0.1552
same,"Content, %","[4]; pH 4, 72 h",11%
same,Intensity at 675 nm,"[4]; pH 4, 72 h",0.1004
same,"Content, %","[4]; pH 7, 0 min",100%
same,Intensity at 675 nm,"[4]; pH 7, 0 min",0.913
same,"Content, %","[4]; pH 7, 4 h",97%
same,Intensity at 675 nm,"[4]; pH 7, 4 h",0.8856
same,"Content, %","[4]; pH 7, 24 h",94%
same,Intensity at 675 nm,"[4]; pH 7, 24 h",0.8582
same,"Content, %","[4]; pH 7, 72 h",91%
same,Intensity at 675 nm,"[4]; pH 7, 72 h",0.833
same,"Content, %","[4]; pH 9, 0 min",100%
same,Intensity at 675 nm,"[4]; pH 9, 0 min",0.913
same,"Content, %","[4]; pH 9, 4 h",87%
same,Intensity at 675 nm,"[4]; pH 9, 4 h",0.7943
same,"Content, %","[4]; pH 9, 24 h",75%
same,Intensity at 675 nm,"[4]; pH 9, 24 h",0.6847
same,"Content, %","[4]; pH 9, 72 h",65%
same,Intensity at 675 nm,"[4]; pH 9, 72 h",0.5277
same,"Content, %",[5]; 0 min,100%
same,Intensity at 675 nm,[5]; 0 min,0.913
same,"Content, %",[5]; 4 h,89%
same,Intensity at 675 nm,[5]; 4 h,0.8126
same,"Content, %",[5]; 24 h,84%
same,Intensity at 675 nm,[5]; 24 h,0.7669
same,"Content, %",[5]; 72 h,79%
same,Intensity at 675 nm,[5]; 72 h,0.7213
same,IC50,"[6]; irradiation at 10 J/cm^2, MTT after 24 h, read-out: IC50, Photoinduced cytotoxicity",478 ± 9 nM
same,IC50,"[6]; irradiation at 10 J/cm^2, MTT after 48 h, read-out: IC50, Combined cytotoxicity",146 ± 7 nM
same,IC50,"[6]; irradiation at 10 J/cm^2, MTT after 72 h, read-out: IC50, Combined cytotoxicity",98 ± 5 nM
same,increase of photocytotoxicity on increasing incubation time after irradiation,[6]; from 24 h to 72 h after irradiation,5 fold
"C=Cc1c(C)c2cc3nc(c4c5[nH]c(cc6nc(cc1[nH]2)C(C)=C6CC)c(C)c5C(=S)C4)[C@@H](CCC(=O)OC)[C@@H]3C [Compound 6, Pyropheophorbide a 13^1-Thioketone]",decrease of Q2 band,"[7]; 4% Kolliphor ELP micellar solution, neutral pH, after 3 h",more than 50%
same,conversion of thioketone to pyropheophorbide a (4),"[7]; 4% Kolliphor ELP micellar solution, neutral pH, after 24 h",completely converted
same,long-wave absorption maximum (Q2 band),[3],708 nm
same,fluorescence maximum,[3],723 nm
"Pheophorbide a [Compound 3, reference compound]",long-wave absorption maximum (Q2 band),[3],666 nm
same,fluorescence maximum,[3],680 nm
C=Cc1c(C)c2cc3nc(c4c5[nH]c(cc6nc(cc1[nH]2)C(C)=C6CC)c(C)c5C(=S)C4C(=O)OC)[C@@H](CCC(=O)OC)[C@@H]3C (some centres unmarked) [Compound 5],long-wave absorption maximum (Q2 band),[3],706 nm
same,fluorescence maximum,[3],719 nm
